Several values for one entry are separate records, joined by “and”; a condition that tells them apart may be missing. Equal values may be shown once. Toxic doses and inconclusive results are not listed. Rule for the calls: active = survival T/C of 150% or more; inactive = T/C below 125% in these data.
System: BDF1 mice, P388 leukemia ip, median survival T/C
Assay: NCI In Vivo Anticancer Drug Screen. Data for tumor model P388 Leukemia (intraperitoneal) in B6D2F1 (BDF1) mice
Conditions: endpoint: median survival time, higher = longer survival
Summary of the method: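 Each value expresses how treatment altered survival: treated-mouse outcome over vehicle-mouse outcome, both groups bearing the transplanted tumour.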

[1] = dose: 75.0 mg/kg/injection, schedule: Q01DX009 (ip), vehicle: Klucel (hydroxypropylcellulose) (HPC)
[2] = dose: 150.0 mg/kg/injection, schedule: Q01DX009 (ip), vehicle: Klucel (hydroxypropylcellulose) (HPC)
[3] = dose: 50.0 mg/kg/injection, schedule: Q01DX009 (ip), vehicle: saline with Tween-80
[4] = dose: 100.0 mg/kg/injection, schedule: Q01DX009 (ip), vehicle: saline with Tween-80
[5] = dose: 200.0 mg/kg/injection, schedule: Q01DX009 (ip), vehicle: saline with Tween-80
[6] = dose: 200.0 mg/kg/injection, schedule: Q01DX009 (ip), vehicle: saline
[7] = dose: 100.0 mg/kg/injection, schedule: Q04DX003 (ip), vehicle: Klucel (hydroxypropylcellulose) (HPC)
[8] = dose: 200.0 mg/kg/injection, schedule: Q04DX003 (ip), vehicle: Klucel (hydroxypropylcellulose) (HPC)
[9] = dose: 400.0 mg/kg/injection, schedule: Q04DX003 (ip), vehicle: Klucel (hydroxypropylcellulose) (HPC)
[10] = dose: 1.56 mg/kg/injection, schedule: Q01DX009 (ip), vehicle: saline with Tween-80
[11] = dose: 12.5 mg/kg/injection, schedule: Q01DX009 (ip), vehicle: saline with Tween-80
[12] = dose: 100.0 mg/kg/injection, schedule: Q04DX003 (ip), vehicle: saline with Tween-80
[13] = dose: 200.0 mg/kg/injection, schedule: Q04DX003 (ip), vehicle: saline with Tween-80
[14] = dose: 400.0 mg/kg/injection, schedule: Q01DX009 (ip), vehicle: saline with Tween-80
[15] = dose: 400.0 mg/kg/injection, schedule: Q04DX003 (ip), vehicle: saline with Tween-80

Measured: T/C

O=C1/C(=C/c2ccco2)CC2CCCCC12 (stereo not given)
inactive: dose: 50.0 mg/kg/injection, schedule: Q01DX009 (ip), vehicle: Klucel (hydroxypropylcellulose) (HPC) 104 % of control | dose: 75.0 mg/kg/injection, schedule: Q01DX001 (ip), vehicle: other 100 % of control | [1] 113 % of control | dose: 150.0 mg/kg/injection, schedule: Q01DX001 (ip), vehicle: other 104 % of control | [2] 100 % of control

COC(=O)C(Sc1ccc(Cl)cc1)C1SC(=S)N(Cc2ccccc2)C1=O (stereo not given)
inactive: [3] 104 % of control | [4] 118 % of control | [5] 109 % of control

CN(C)C1Cc2ccccc2C1OC(=O)c1ccccc1 (stereo not given)
inactive: dose: 50.0 mg/kg/injection, schedule: Q01DX009 (ip), vehicle: saline 103 % of control | [6] 91 % of control

COc1cc2c(cc1OC)-c1c3c(cc4c1[C@H](C2)N(C)CC4)OCO3
inactive: dose: 37.5 mg/kg/injection, schedule: Q01DX009 (ip), vehicle: Klucel (hydroxypropylcellulose) (HPC) 97 % of control | [1] 98 % of control | [2] 98 % of control

COC(OC)c1cc(S)[nH]c(=O)c1F
inactive: [7] 100 % of control | [8] 110 % of control | [9] 100 % of control

CCCCCC[C@@H](O)C/C=C\CCCCCCCC(=O)OCCO
inactive: dose: 50.0 mg/kg/injection, schedule: Q01DX005 (ip), vehicle: saline 99 % of control | dose: 100.0 mg/kg/injection, schedule: Q01DX005 (ip), vehicle: saline 107 % of control | dose: 200.0 mg/kg/injection, schedule: Q01DX005 (ip), vehicle: saline 93 % of control | dose: 400.0 mg/kg/injection, schedule: Q01DX005 (ip), vehicle: saline 105 % of control | dose: 800.0 mg/kg/injection, schedule: Q01DX005 (ip), vehicle: saline 115 % of control | dose: 1600.0 mg/kg/injection, schedule: Q01DX005 (ip), vehicle: saline 107 % of control

CC(=O)[O][Hg][CH]1CCC2OC1CC[CH]2[Hg][O]C(C)=O (stereo not given)
inactive: [10] 101 % of control | dose: 3.13 mg/kg/injection, schedule: Q01DX009 (ip), vehicle: saline with Tween-80 113 % of control | dose: 6.25 mg/kg/injection, schedule: Q01DX009 (ip), vehicle: saline with Tween-80 111 % of control | [11] 104 % of control

O=[N+]([O-])c1ccc(Oc2ccc(C3N(c4ccccc4)CCN3c3ccccc3)cc2)c([N+](=O)[O-])c1
inactive: dose: 12.5 mg/kg/injection, schedule: Q01DX009 (ip), vehicle: water 99 % of control | dose: 25.0 mg/kg/injection, schedule: Q01DX009 (ip), vehicle: water 89 % of control | dose: 50.0 mg/kg/injection, schedule: Q01DX009 (ip), vehicle: water 99 % of control | dose: 100.0 mg/kg/injection, schedule: Q01DX009 (ip), vehicle: water 90 % of control | dose: 200.0 mg/kg/injection, schedule: Q01DX009 (ip), vehicle: water 91 % of control

COc1ccc(OP2OCC(C)O2)cc1 (stereo not given)
inactive: [3] 103 % of control | [4] 102 % of control | [5] 102 % of control

Cc1ccc(/C=C/C(=O)c2ccc(Cl)cc2)cc1
inactive: [4] 90 % of control | [12] 95 % of control | [5] 90 % of control | [13] 109 % of control | [14] 100 % of control | [15] 109 % of control

O=S(=O)(Cl)CCCBr
inactive: dose: 50.0 mg/kg/injection, schedule: Q01DX001 (ip), vehicle: saline sonified 100 % of control | dose: 100.0 mg/kg/injection, schedule: Q01DX001 (ip), vehicle: saline sonified 100 % of control | dose: 200.0 mg/kg/injection, schedule: Q01DX001 (ip), vehicle: saline sonified 100 % of control

OCCNCCNCCO
inactive: dose: 50.0 mg/kg/injection, schedule: Q01DX001 (ip), vehicle: saline 100 % of control | dose: 100.0 mg/kg/injection, schedule: Q01DX001 (ip), vehicle: saline 104 % of control | dose: 200.0 mg/kg/injection, schedule: Q01DX001 (ip), vehicle: saline 104 % of control

COc1ccc(CNCCc2ccc(O)c(OC)c2)cc1O
inactive: [3] 100 % of control | [4] 102 % of control | [5] 107 % of control

c1ccc(C(Nc2nccs2)Nc2nccs2)cc1
inactive: [11] 112 % of control | dose: 25.0 mg/kg/injection, schedule: Q01DX009 (ip), vehicle: saline with Tween-80 108 % of control | [3] 96 % of control and 108 % of control

CC(C)(C)c1ccc(Sc2cccc3c2C(=O)c2c(Cl)cccc2C3=O)cc1
inactive: [12] 90 % of control | [13] 88 % of control | [15] 92 % of control

NC(=S)c1nn(C2OC(CO)C(O)C2O)c2ncnc(N)c12 (stereo not given)
inactive: dose: 0.37 mg/kg/injection, schedule: Q01DX009 (ip), vehicle: saline 111 % of control | dose: 0.75 mg/kg/injection, schedule: Q01DX009 (ip), vehicle: saline 116 % of control

C1CC[CH]([Sn]([CH]2CCCCC2)[CH]2CCCCC2)CC1
inactive: dose: 0.78 mg/kg/injection, schedule: Q01DX009 (ip), vehicle: saline with Tween-80 98 % of control | [10] 89 % of control

CCCCC(=O)c1ccc(Cl)cc1
inactive: dose: 100.0 mg/kg/injection, schedule: Q01DX009 (ip), vehicle: Klucel (hydroxypropylcellulose) (HPC) 105 % of control | [7] 104 % of control | dose: 200.0 mg/kg/injection, schedule: Q01DX009 (ip), vehicle: Klucel (hydroxypropylcellulose) (HPC) 110 % of control | [8] 100 % of control | dose: 400.0 mg/kg/injection, schedule: Q01DX009 (ip), vehicle: Klucel (hydroxypropylcellulose) (HPC) 115 % of control | [9] 100 % of control

O=[N+]([O-])c1ccccc1C=Nc1ccccc1
inactive: dose: 100.0 mg/kg/injection, schedule: Q01DX001 (ip), vehicle: Klucel (hydroxypropylcellulose) (HPC) 100 % of control | dose: 100.0 mg/kg/injection, schedule: Q01DX009 (ip), vehicle: saline 105 % of control | [7] 100 % of control | dose: 200.0 mg/kg/injection, schedule: Q01DX001 (ip), vehicle: Klucel (hydroxypropylcellulose) (HPC) 104 % of control | [6] 90 % of control | [8] 110 % of control | dose: 400.0 mg/kg/injection, schedule: Q01DX001 (ip), vehicle: Klucel (hydroxypropylcellulose) (HPC) 95 % of control | dose: 400.0 mg/kg/injection, schedule: Q01DX009 (ip), vehicle: saline 90 % of control | [9] 100 % of control

Nc1cc(S(=O)(=O)c2ccc(O)c(N)c2)ccc1O
inactive: [4] 104 % of control | [12] 100 % of control | [5] 108 % of control | [13] 95 % of control | [14] 87 % of control | [15] 87 % of control

Cc1ccc2c(c1)C(=O)CCS2
inactive: [7] 100 % of control | [8] 100 % of control | [9] 100 % of control

O=C(C[N+]12CN3CN(CN(C3)C1)C2)c1ccc(Cl)cc1
inactive: dose: 25.0 mg/kg/injection, schedule: Q04DX003 (ip), vehicle: saline 100 % of control | dose: 44.0 mg/kg/injection, schedule: Q04DX003 (ip), vehicle: saline sonified 104 % of control | [3] 107 % of control | dose: 50.0 mg/kg/injection, schedule: Q04DX003 (ip), vehicle: saline 110 % of control | dose: 66.0 mg/kg/injection, schedule: Q04DX003 (ip), vehicle: saline sonified 118 % of control | [4] 119 % of control | [5] 119 % of control

Reference: PubChem BioAssay AID328 (DTP/NCI, 2004)
